These results are taken from ChEMBL document CHEMBL3779814, “6-O-Nucleotidyltransferase: an aminoglycoside-modifying enzyme specific for streptomycin/streptidine” (2016).

Converted amounts (≈) assume the structure as drawn. The source made the active and inactive calls. The calls are words filed in the database; no cut-off is given here.

Assay [1] has as its system Escherichia coli. Briefly: Antibacterial activity against Escherichia coli incubated for 12 hrs. It is filed as functional.
For assay [2], the system named is Escherichia coli. Briefly: Antibacterial activity against Escherichia coli BL21(DE3) harboring pET plasmid incubated for 12 hrs. The format is functional.
In assay [3] the test system is Escherichia coli. Put plainly: Antibacterial activity against Escherichia coli BL21(DE3) expressing Bacillus subtilis N-terminal His-tagged ANT(6) incubated for 12 hrs. The format is functional.
In assay [4] the test system is Bacillus subtilis. Briefly: Activity of Bacillus subtilis N-terminal His-tagged ANT(6) expressed in Escherichia coli BL21(DE3) cells assessed as ratio of Kcat to Km of adenylated product by Michaelis-Menten kinetics.
Assay [5] concerns Bacillus subtilis. Briefly: Activity of Bacillus subtilis N-terminal His-tagged ANT(6) expressed in Escherichia coli BL21(DE3) cells assessed as adenylated product by Michaelis-Menten kinetics.
Assay [6] concerns Escherichia coli. Briefly: Antibacterial activity against Escherichia coli incubated for 12 hrs in presence of 2-deoxystreptidine. The format is functional.
Assay [7] concerns Escherichia coli. Put plainly: Antibacterial activity against Escherichia coli BL21(DE3) harboring pET plasmid incubated for 12 hrs in presence of 2-deoxystreptidine. The format is functional.
The test system of assay [8] is Escherichia coli. Put plainly: Antibacterial activity against Escherichia coli BL21(DE3) expressing Bacillus subtilis N-terminal His-tagged ANT(6) incubated for 12 hrs in presence of 2-deoxystreptidine. The format is functional.
Assay [9] has as its system Escherichia coli. Put plainly: Antibacterial activity against Escherichia coli in presence of streptidine. The format is functional.
For assay [10], the system named is Escherichia coli. Put plainly: Antibacterial activity against Escherichia coli BL21(DE3) harboring pET plasmid in streptidine. It is filed as functional.
The subject of assay [11] is Escherichia coli. Briefly: Antibacterial activity against Escherichia coli BL21(DE3) expressing Bacillus subtilis N-terminal His-tagged ANT(6) in presence of streptidine. It is filed as functional.
Assay [12] concerns Escherichia coli. Put plainly: Antibacterial activity against Escherichia coli. The format is functional.
Assay [13] deals with Escherichia coli. Put plainly: Antibacterial activity against Escherichia coli BL21(DE3). The format is functional.
For assay [14], the system named is Escherichia coli. Put plainly: Antibacterial activity against Escherichia coli BL21(DE3) expressing ANT(6). The format is functional.
A further assay has as its system Serratia marcescens. Briefly: Activity of Serratia marcescens ANT(3'')-1i/AAC(6')-2d expressed in Escherichia coli BL21(DE3) cells assessed as ratio of Kcat to Km of ANT(3'')-1i domain catalysed adenylated product by steady state kinetic analysis.

By MIC90 is commonly meant the lowest concentration that inhibits either 90% of growth or 90% of the strains tested, depending on the study. A word on the Km: it is the substrate concentration at which the rate is half of its maximum. The kcat is the number of substrate molecules converted per active site and unit of time at saturation.

As for `N=C(N)N[C@@H]1[C@@H](O)[C@H](NC(=N)N)[C@@H](O)[C@H](O)[C@H]1O`, the MIC90 was over 100 µg/mL against Escherichia coli [1], over 100 µg/mL against Escherichia coli [2] and over 200 µg/mL against Escherichia coli [3]. For the same compound, in the assay with Bacillus subtilis [4], the kcat/Km stood at 1.2 M⁻¹ s⁻¹. For the same compound, the Km with Bacillus subtilis [5] was found to be 600 µM. In addition, in the assay on Bacillus subtilis [5], the kcat turned out to be 0.0006 s⁻¹.
As to `Nc1ncnc2c1ncn2[C@@H]1O[C@H](COP(=O)(O)OP(=O)(O)O)[C@@H](O)[C@H]1O`, the outcome in the assay with Bacillus subtilis [5] was inactive.
Turning to `Nc1nc2c(ncn2[C@@H]2O[C@H](COP(=O)(O)OP(=O)(O)OP(=O)(O)O)[C@@H](O)[C@H]2O)c(=O)[nH]1`, the outcome with Bacillus subtilis [5] was Active.
Take `Nc1ncnc2c1ncn2[C@@H]1O[C@H](COP(=O)(O)CP(=O)(O)OP(=O)(O)O)[C@@H](O)[C@H]1O`: the outcome in the assay on Bacillus subtilis [5] was inactive.
Same read-out and setting: the value for `O=c1ccn([C@@H]2O[C@H](COP(=O)(O)OP(=O)(O)OP(=O)(O)O)[C@@H](O)[C@H]2O)c(=O)[nH]1` was “Active”.
Consider `Nc1ccn([C@@H]2O[C@H](COP(=O)(O)OP(=O)(O)OP(=O)(O)O)[C@@H](O)[C@H]2O)c(=O)n1`, for which the outcome in the assay on Bacillus subtilis [5] was Active.
With `NC[C@H]1O[C@H](O[C@H]2[C@H](O)[C@@H](O[C@H]3O[C@H](CO)[C@@H](O)[C@H](N)[C@H]3O)[C@H](N)C[C@@H]2N)[C@H](O)[C@@H](O)[C@@H]1O`, in the assay on Bacillus subtilis [5], the result was inactive.
Take `Nc1ncnc2c1ncn2[C@@H]1O[C@H](COP(=O)(O)OP(=O)(O)OP(=O)(O)O)[C@@H](O)[C@H]1O`: the kcat/Km with Bacillus subtilis [4] worked out at 2.1 ×10² /s/M. Moreover, in the assay with Bacillus subtilis [5], the outcome was Active, the Km stood at 84 µM and the kcat worked out at 0.018 s⁻¹.
Consider `Nc1ncnc2c1ncn2[C@@H]1O[C@H](COP(=O)(O)O)[C@@H](O)[C@H]1O`, for which the outcome with Bacillus subtilis [5] was inactive.
In the case of `CN[C@@H]1[C@H](O[C@H]2[C@H](O[C@H]3[C@H](O)[C@@H](O)[C@H](N=C(N)N)[C@@H](O)[C@@H]3N=C(N)N)O[C@@H](C)[C@]2(O)C=O)O[C@@H](CO)[C@H](O)[C@H]1O` [STREPTOMYCIN], the MIC90 in the assay with Escherichia coli [6] is 2 µg/mL; in the assay with Escherichia coli [7], 100 µg/mL; in the assay with Escherichia coli [8], 100 µg/mL; in the assay on Escherichia coli [9] it was 5 µg/mL; against Escherichia coli [10], 5 µg/mL (≈ 8.6 µM); in the assay with Escherichia coli [11] it was 10 µg/mL. Besides, the MIC90 is 5 µg/mL (≈ 8.6 µM) with Escherichia coli [12], 5 µg/mL (≈ 8.6 µM) in the assay on Escherichia coli [13] and over 200 µg/mL with Escherichia coli [14]. For the same compound, the kcat/Km in the assay with Bacillus subtilis [4] was determined as 9.2 ×10² /s/M; with Serratia marcescens, 3.2 ×10⁵ /s/M. Also, the Km with Bacillus subtilis [5] turned out to be 38 µM. Also, the kcat in the assay on Bacillus subtilis [5] was found to be 0.03 s⁻¹.
Consider `NC[C@H]1O[C@H](O[C@H]2[C@H](O[C@@H]3O[C@H](CO)[C@@H](O)[C@H]3O)[C@@H](O)[C@H](N)C[C@@H]2N)[C@H](N)[C@@H](O)[C@@H]1O`, for which the outcome in the assay with Bacillus subtilis [5] was inactive.
Turning to `N[C@@H]1C[C@H](N)[C@@H](O)[C@H](O)[C@H]1O`, the MIC90 in the assay on Escherichia coli [1] and with Escherichia coli [3] was over 100 µg/mL throughout.
